Measurements published in patent US6503869B1, “Enhanced post-emergent herbicidal compositions containing ammonium salts and methods of using the same” (Falcon Lab LLC, priority 2000, dated 2003).

Columns and labels:
fescue = assay: Field study on fescue suppression; assay type: in vivo; settings: one week after spraying; 0.2% ammonium pelargonate alone; 15 gpa
Excerpt: A field study was made on fescue suppression (fescue thatch, 9-10 in. height, blade length 10-16 in.) using a 0.2% by weight solution of ammonium pelargonate alone, glyphosate ammonium salt alone (ROUNDUP DF®) at application rates of both 0.21 lb. active ingredient/acre (ai/A) and 0.42 lb. ai/A and a combination of 0.2% ammonium pelargonate with the same rates of ROUNDUP DF. The spray rate was 15 gal./acre (gpa) in all cases. One week after spraying, the following results were obtained: […]

weeds and grass = assay: Time to visual phytotoxic effect after application to weeds (general statement); assay type: in vivo; settings: without ammonium pelargonate; 'or longer'
Excerpt: As an example, weed and grass necrosis may approach 100% within 24 hrs. with glyphosate in combination with ammonium pelargonate, compared to 3-4 days or longer without the ammonium pelargonate.
Unwanted vegetation may be killed by applying to the locus of the vegetation the herbicidal composition of the invention. The herbicidal composition of the invention may be contacted with the unwanted vegetation by spraying or otherwise distributing the composition onto the foliage in accordance with the manufacturers' directions of the post-emergent herbicide [to which has been added the compound of formula (I)]. […] Most importantly, the invention dramatically reduces the kill time. Leaves of vegetation sprayed with herbicidal compositions of the invention usually start to shrivel or turn brown within hours of a single application. Necrosis is evident, usually in 24 hours. Typically unwanted vegetation is dead in less than 24 hours compared to 3 to 4 days when the post-emergent is solely used. Since use of the compound of formula (I) decreases the amount of post-emergent herbicide required, the invention dramatically reduces costs.

| SMILES | necrosis (fescue) [%] | time until weed and grass necrosis may approach 100% (weeds and grass) [days] |
| --- | --- | --- |
| CCCCCCCCC(=O)O.N [Ammonium Pelargonate, ammonium pelargonate] | 0 | – |
| O=C(O)CNCP(=O)(O)O [glyphosate] | – | 3 to 4 |
